Values of other authors as cited in US20250099444A1, “Methods of Treating a Subject for Long-Haul COVID-19, and Compositions for Use in the Same” (IncellDx, Inc., priority 2022, published 2025).

Test system: R5-tropic HIV-1

Cc1nnc(C(C)C)n1[C@@H]1C[C@H]2CC[C@@H](C1)N2CC[C@H](NC(=O)C1CCC(F)(F)CC1)c1ccccc1 [maraviroc, 4,4-difluoro-N-[(1S)-3-[(1S,5R)-3-(3-methyl-5-propan-2-yl-1,2,4-triazol-4-yl)-8-azabicyclo[3.2.1]octan-8-yl]-1-phenylpropyl]cyclohexane-1-carboxamide]
incidence of hepatoxicity (MOTIVATE study) (96 weeks of treatment at 300 mg B.I.D): low incidence of hepatoxicity | death and other health threats, long-term follow-up of MOTIVATE trials (>5 year follow-up, HIV patients): limited instances of death and other health threats such as hepatic failure and myocardial infarctions | HIV viral loads (MOTIVATE 1 and MOTIVATE 2) (individuals with R5-tropic HIV-1): lower levels of HIV viral loads
